{"source": "patent US20200369728A1", "about": "“PEPTIDOMIMETIC MACROCYCLES AND USES THEREOF” (Aileron Therapeutics, Inc., priority 2015, published 2020)", "key": {"[1]": {"system": "MCF-7 breast cancer xenograft", "assay": "MCF-7 breast cancer xenograft study, tumor growth inhibition", "details": "30 mg/kg three times per week iv", "quoted_text": "This formulation was prepared once for the duration of the study.\nEach group was assigned to a different treatment regimen.\nDuring the dosing period the mice were weighed and tumors measured 1-2 times per week."}, "[2]": {"system": "SJSA-1", "assay": "Cell viability assay (MTT), SJSA-1"}, "[3]": {"assay": "MCF-7 breast cancer xenograft study, body weight and deaths", "format": "in vivo, mice", "description": "A negative control stapled peptide."}, "[4]": {"system": "AML cell lines", "assay": "Cellular proliferation in AML cells treated with Ara-C", "format": "cell-based", "details": "Ara-C alone"}, "[5]": {"system": "MV4-11", "assay": "WST-1 / MTT cell viability, MV4-11", "quoted_text": "Initially, various MV4-11 cell numbers were plated and evaluated 3-7 days later to determine the optimal number of cells to be plated and treatment duration.\nCells were evaluated for viability by WST-1 assay or MTT assay 3-7 days after beginning treatment.\n(§2) A drug combination index plot was used to assess the synergistic, additive, or antagonistic properties of each combination treatment. […] Combination index (CI) values were calculated using the CompuSyn software. The data were expressed as log(CI)."}, "[6]": {"system": "p53-pathway", "assay": "mRNA expression of p21, MDM2, Puma, Bax, Gadd45a in Molm13 and Oci/AML3", "format": "cell-based", "details": "Molm13 and Oci/AML3, 0.1-10.0 μM", "description": "Expression levels were normalized to GAPDH mRNA expression levels."}, "[7]": {"system": "MOLT-3", "assay": "WST-1 / MTT cell proliferation assay, MOLT-3", "format": "cell-based, human", "quoted_text": "All media were supplemented with 10% (v/v) fetal calf serum, 100 units penicillin and 100 μg/ml streptomycin at 37° C. and 5% CO2.\nOne day prior to assaying, cells were trypsinized, counted and seeded at pre-determined densities in 96-well plates as follows: MCF-7, 5000 cells/well/200 μl; MOLT-3, 30,000 cells/well/200 μl. […] The WST-1 variant of the MTT assay was used to measure cell viability according to the manufacturer's protocol. WST-1 is a cell-impermeable, sulfonated tetrazolium salt that can be used to examine cell viability without killing the cells.\nInitially, various MOLT-3 cell numbers were plated and evaluated 3-7 days later to determine the optimal number of cells to be plated and treatment duration.\nCells were evaluated for viability by WST-1 assay or MTT assay 3-7 days after beginning the sequential treatment (FIGS. 33 and 34).\nCells were evaluated for viability by WST-1 assay or MTT assay 3-7 days after beginning treatment with rituximab (FIGS. 68B and 69B) or romidepsin (FIGS. 71B and 72B)."}, "[8]": {"system": "Mel-Ho (V600E)", "assay": "Combination with PLX4032 in Mel-Ho", "format": "cell-based"}, "[9]": {"system": "Molm13, OCI/AML3, Molm14, HL60 and ML2 cell lines", "assay": "Clonogenicity assay on AML cell lines", "format": "cell-based", "details": "p53 wild type cell lines, 1.0 μM", "experimental": "A clonogenicity assay was then performed and the number of clonies was counted (FIG. 6)."}, "[10]": {"system": "A375", "assay": "Cell viability, A375 melanoma cell line (single agents and combinations)", "format": "cell-based, human", "details": "for combination effect with PLX4032 (Zelboraf, vemurafenib): B-Raf-mutant melanoma cell line A375"}, "[11]": {"system": "Molm13, OCI/AML3, Molm14, HL60 and ML2 cell lines", "assay": "Apoptosis assay of AML cell lines (DAPI / Annexin-V FACS)", "format": "cell-based", "details": "p53 wild type AML cell lines, 1.0, 5.0 or 10.0 μM", "experimental": "(§1) Cells were probed with DAPI and a FITC-labeled anti-Annexin-V antibody. FACS analysis was performed to determine the number of viable cells and the number of cells in early apoptosis, late apoptosis and undergoing necrosis and the results were plotted."}, "[12]": {"system": "MCF-7", "assay": "CyQUANT cell viability, MCF-7", "format": "cell-based, human", "details": "MCF-7, sequential treatment, 72 hrs", "experimental": "Cells were also evaluated for viability using the CyQUANT method after beginning treatment (FIGS. 78A and 79A). Cells were evaluated for viability using the CyQUANT method after beginning the simultaneous treatments (FIGS. 78B and 79B). […] The data were expressed as log(CI).\nThe anticancer activity of the combination treatment was assessed based on the order of addition of the drugs."}, "[13]": {"system": "DOHH-2", "assay": "WST-1 / MTT cell viability, DOHH-2", "format": "cell-based, human", "quoted_text": "Initially, various DOHH-2 cell numbers were plated and evaluated 3-7 days later to determine the optimal number of cells to be plated and treatment duration.\nas §2"}, "[14]": {"system": "p53", "assay": "p53 stabilization in AML cells (Western blot, dose and time)", "format": "cell-based", "details": "AML p53 wild type cell lines, 0.1-10.0 μM, 24, 48 or 72 hrs", "excerpt": "(§3) Lysates were subjected to SDS-PAGE and probed by Western blotting with antibodies specific to MDM2, p53, p21, and β-Actin."}, "[15]": {"system": "p53-pathway", "assay": "Western blot of p53-pathway, primary AML cells", "format": "cell-based", "details": "1.0 or 5.0 μM", "excerpt": "as §3"}, "[16]": {"system": "p53-pathway", "assay": "Western blot of p53-pathway, Molm13, OCI/AML3, Molm14 and ML2 cell lines", "format": "cell-based", "details": "Molm13, OCI/AML3, Molm14 and ML2, 1.0 μM", "experimental": "The Molm13, OCI/AML3, Molm14 and ML2 cell lines were treated with vehicle or 1.0 μM Aileron peptide (FIG. 1B)."}, "[17]": {"system": "primary AML cell line", "assay": "Clonogenicity assay on primary AML cell lines", "format": "cell-based", "details": "0.1-1.0 μM", "experimental": "A clonogenicity assay was then performed and the number of clonies was counted."}, "[18]": {"system": "primary AML cell line", "assay": "Apoptosis assay on primary AML cell lines", "format": "cell-based", "details": "primary AML cells, 1.0, 5.0 or 10.0 μM", "experimental": "as §1"}, "[19]": {"details": "MV4-11, sequential treatment, 72 hrs"}, "[20]": {"details": "DOHH-2, sequential treatment, 72 hrs"}}, "note": "Entries after “also recorded” stand apart in the source; their conditions may differ. Like-named read-outs stand apart in the source and are kept apart here."}
{"smiles": "CC(=O)N[C@@H](CC(C)C)C(=O)N[C@H](C(=O)N[C@@H](C)C(=O)N[C@]1(C)CCCCCCC=CCCC[C@@](C)(C(=O)N[C@@H](CO)C(=O)N[C@@H](C)C(=O)N[C@@H](C)C(N)=O)NC(=O)[C@H](CC2CCC2)NC(=O)[C@H](CCC(N)=O)NC(=O)[C@H](C)NC(=O)[C@H](Cc2c[nH]c3ccccc23)NC(=O)[C@H](Cc2ccc(O)cc2)NC(=O)[C@H](CCC(=O)O)NC1=O)[C@@H](C)O", "note": "[SP252]", "values": [{"measurement": "TGI by Day 32", "setting": "[1]", "value": 88, "unit": "%"}, {"measurement": "activity in the SJSA-1 in vitro viability assay", "setting": "[2]", "value": "no activity"}, {"measurement": "% BW Change", "setting": "[3]; 30 mg/kg 3x/wk iv, Days 18-39", "value": "+3.3%"}, {"measurement": "No. with ≥10% BW Loss", "setting": "[3]; 30 mg/kg 3x/wk iv, Days 18-39", "value": "0/10"}, {"measurement": "No. with ≥20% BW Loss or death", "setting": "[3]; 30 mg/kg 3x/wk iv, Days 18-39", "value": "0/10"}, {"measurement": "tolerability of dosing regimen", "setting": "[3]; 30 mg/kg three times per week iv", "value": "well-tolerated with no body weight loss or deaths noted"}]}
{"smiles": "Nc1ccn([C@@H]2O[C@H](CO)[C@@H](O)[C@@H]2O)c(=O)n1", "note": "[Ara-C, cytarabine, reference compound]", "values": [{"measurement": "proliferation of AML cell lines", "setting": "[4]", "value": "inhibits proliferation of AML cell lines"}, {"measurement": "order of addition: effect on cell growth, AP1 and Ara-C", "setting": "[5]; [19]", "value": "suppressed MV4-11 cell growth with or without AP1"}]}
{"smiles": "CC(=O)N[C@@H](CC(C)C)C(=O)N[C@H](C(=O)N[C@@H](Cc1ccccc1)C(=O)N[C@]1(C)CCCCCCC=CCCC[C@@](C)(C(=O)N[C@@H](C)C(=O)N[C@@H](C)C(=O)N[C@@H](C)C(=O)N[C@@H](C)C(=O)N[C@@H](C)C(=O)N[C@H](C)C(N)=O)NC(=O)[C@H](CC(C)C)NC(=O)[C@H](CCC(N)=O)NC(=O)[C@H](C)NC(=O)[C@H](Cc2c[nH]c3ccccc23)NC(=O)[C@H](Cc2ccc(O)cc2)NC(=O)[C@H](CCC(=O)O)NC1=O)[C@@H](C)O", "note": "[Aileron peptide 1]", "values": [{"measurement": "activation of the p53-pathway (mRNA normalized to GAPDH)", "setting": "[6]", "value": "activates the p53-pathway"}, {"measurement": "combination effect of AP1 with romidepsin", "setting": "[7]", "value": "enhances Aileron peptide 1 inhibition of cancer cell proliferation and cell killing"}, {"measurement": "combination effect of AP1 with romidepsin", "setting": "[7]; listed as AP1", "value": "complementary in vitro anticancer activity; also recorded: mostly additive complimentarity"}, {"measurement": "combination effect with PLX4032 (Zelboraf)", "setting": "[8]", "value": "synergy"}, {"measurement": "clonogenic capacity", "setting": "[9]", "value": "inhibited their clonogenic capacity"}, {"measurement": "combination effect with PLX4032 (Zelboraf, vemurafenib)", "setting": "[10]", "value": "synergy"}, {"measurement": "combination effect with PLX4032 (Zelboraf, vemurafenib)", "setting": "[10]; listed as AP1", "value": "additive or better complimentarity"}, {"measurement": "EC50", "setting": "[10]; single agent, read-out: EC50 on A375 cells", "value": 70, "unit": "nM"}, {"measurement": "apoptotic cell death", "setting": "[11]", "value": "induces apoptotic cell death"}, {"measurement": "order of addition: effect on cell growth, AP1 and palbociclib", "setting": "[12]", "value": "suppressed MCF-7 cell growth with or without palbociclib"}, {"measurement": "combination effect of AP1 with rituximab", "setting": "[13]; DOHH-2 (figure legends), listed as AP1", "value": "complementary in vitro anticancer activity; also recorded: additive or better complimentarity"}, {"measurement": "order of addition: effect on cell growth, AP1 and CTX", "setting": "[13]; [20]", "value": "suppressed DOHH-2 cell growth with or without CTX"}, {"measurement": "order of addition: effect on cell growth, AP1 and VCR", "setting": "[13]; [20]", "value": "suppressed DOHH-2 cell growth with or without VCR"}, {"measurement": "combination effect of AP1 with CTX", "setting": "[13]; DOHH-2, listed as AP1", "value": "complementary in vitro anticancer activity; also recorded: synergistic; also recorded: additive or better complimentarity"}, {"measurement": "combination effect of AP1 with VCR", "setting": "[13]; DOHH-2, listed as AP1", "value": "complementary in vitro anticancer activity; also recorded: mostly synergistic; also recorded: additive or better complimentarity"}, {"measurement": "EC50", "setting": "[13]; single agent, read-out: EC50 on DOHH-2 cells", "value": 60, "unit": "nM"}, {"measurement": "p53 stabilization", "setting": "[14]", "value": "stabilizes p53 in a time and dose dependant manner"}, {"measurement": "activation of the p53-pathway", "setting": "[15]", "value": "activates the p53-pathway"}, {"measurement": "activation of the p53-pathway", "setting": "[16]", "value": "activates the p53-pathway"}, {"measurement": "clonogenic capacity", "setting": "[17]", "value": "inhibited its clonogenic capacity to a higher extent"}, {"measurement": "order of addition: effect on cell growth, AP1 and Ara-C", "setting": "[5]; [19]", "value": "suppressed MV4-11 cell growth with or without Ara-C"}, {"measurement": "order of addition: effect on cell growth, AP1 and azacitidine", "setting": "[5]; [19]", "value": "suppressed MV4-11 cell growth with or without azacitidine"}, {"measurement": "order of addition: effect on cell growth, AP1 and decitabine", "setting": "[5]; [19]", "value": "suppressed MV4-11 cell growth with or without decitabine"}, {"measurement": "order of addition: effect on cell growth, AP1 and midostaurin", "setting": "[5]; [19]", "value": "suppressed MV4-11 cell growth with or without midostaurin"}, {"measurement": "combination effect of AP1 with Ara-C", "setting": "[5]; MV4-11, listed as AP1", "value": "complementary in vitro anticancer activity; also recorded: mostly additive with some degree of synergy; also recorded: additive or better complimentarity"}, {"measurement": "combination effect of AP1 with azacitidine", "setting": "[5]; MV4-11, listed as AP1", "value": "complementary in vitro anticancer activity; also recorded: mostly additive with some synergy; also recorded: additive or better complimentarity"}, {"measurement": "combination effect of AP1 with decitabine", "setting": "[5]; MV4-11, listed as AP1", "value": "complementary in vitro anticancer activity; also recorded: mostly additive; also recorded: additive or better complimentarity"}, {"measurement": "combination effect of AP1 with midostaurin", "setting": "[5]; MV4-11, listed as AP1", "value": "complementary in vitro anticancer activity; also recorded: mostly synergistic; also recorded: additive or better complimentarity"}, {"measurement": "apoptotic cell death", "setting": "[18]", "value": "induces apoptotic cell death"}]}
